Among the data in patent publication US20220378801A1, “NOVEL COMPOUNDS” (AC Immune SA, priority 2019, published 2022) are IC50 values, retold here.

What is called IC50 is the point on the concentration scale where inhibition reaches its midpoint.

The target of experiment [1] is T1, NLRP3 inflammasome (Homo sapiens, UniProt Q96P20). The experiment can be described thus: NLRP3 inflammasome activation assay, IL-1 beta release, human monocyte-like cells, MSU stimulation. Type of experiment: cell-based. More on the design: endogenous in cells. The conditions noted are these: PMA-differentiated, LPS-primed human monocyte-like cells; MSU 150 μg/ml 3 h; IL-1β by AlphaLISA. How it is done: (§1) The following assays can be used to determine the inhibitory activity of test compounds on the NLRP3 inflammasome using common stimuli nigericin (Invivogen) or monosodium urate crystals (MSU)(Invivogen).
T1 sequence (Q96P20 whole entry): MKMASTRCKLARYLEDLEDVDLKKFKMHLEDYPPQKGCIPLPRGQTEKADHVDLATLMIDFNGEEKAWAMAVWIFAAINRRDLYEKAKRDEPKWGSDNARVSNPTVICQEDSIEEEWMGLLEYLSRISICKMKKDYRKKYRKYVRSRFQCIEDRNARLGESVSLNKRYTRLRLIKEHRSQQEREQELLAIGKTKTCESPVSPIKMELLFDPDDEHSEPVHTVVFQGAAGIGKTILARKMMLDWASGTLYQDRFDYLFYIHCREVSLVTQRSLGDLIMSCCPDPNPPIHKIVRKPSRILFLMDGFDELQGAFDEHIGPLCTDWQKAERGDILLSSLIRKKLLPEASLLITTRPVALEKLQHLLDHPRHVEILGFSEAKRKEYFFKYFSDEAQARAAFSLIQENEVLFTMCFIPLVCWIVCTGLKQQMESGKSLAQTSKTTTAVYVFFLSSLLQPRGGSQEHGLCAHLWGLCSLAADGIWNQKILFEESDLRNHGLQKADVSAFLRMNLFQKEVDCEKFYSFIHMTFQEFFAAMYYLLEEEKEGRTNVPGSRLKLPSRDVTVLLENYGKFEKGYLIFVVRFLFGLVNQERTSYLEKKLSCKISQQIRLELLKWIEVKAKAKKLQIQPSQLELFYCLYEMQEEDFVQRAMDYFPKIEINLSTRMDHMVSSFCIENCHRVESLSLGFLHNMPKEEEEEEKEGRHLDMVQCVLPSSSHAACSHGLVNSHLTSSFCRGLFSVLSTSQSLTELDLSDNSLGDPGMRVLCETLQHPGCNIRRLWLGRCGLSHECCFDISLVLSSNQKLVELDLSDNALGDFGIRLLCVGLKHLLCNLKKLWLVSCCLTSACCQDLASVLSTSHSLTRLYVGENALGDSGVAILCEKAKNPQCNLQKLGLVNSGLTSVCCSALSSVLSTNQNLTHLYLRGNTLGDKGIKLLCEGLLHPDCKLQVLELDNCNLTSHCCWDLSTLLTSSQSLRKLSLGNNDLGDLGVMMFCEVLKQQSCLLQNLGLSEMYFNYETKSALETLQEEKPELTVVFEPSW
(§2) Human monocyte-like cells are cultured in RPM11640 Glutamax medium supplemented with 10% heat inactivated FCS and 50 U/ml penicillin-streptomycin (Life Technologies). HMDM (Human Monocyte Derived Macrophage) are isolated from human blood with leucosep tubes and classical monocyte isolation kit from Miltenyi based on negative selection.
(§3) NLRP3 inflammasome activation assays Human monocyte-like cells are seeded at 75000 per well in a 96 well plate and differentiated overnight into macrophages with 10 ng/ml PMA (Phorbol Myristate Acetate). The following day, medium containing 10 ng/ml LPS (lipopolysaccharide) is added. After 3 h of LPS priming, concentrations of test compound in the range from 100 μM to 6 nM are added 30 min prior to NLRP3 inflammasome stimulation with Nigericin 3.75 μM or MSU 150 μg/ml for 3 h.
(§4) For IL-1β quantification, supernatants are analyzed using AlphaLISA kits according to the manufacturer's instructions (Perkin Elmer AlphaLISA AL220F).
(§5) IC50 (concentration corresponding to 50% inhibition) were determined using GraphPad Prism 8.
(In general: In Alpha technology, singlet oxygen from a donor bead excites a nearby acceptor bead.)

Experiment [2] has as its target T1, NLRP3 inflammasome. The experiment can be described thus: NLRP3 inflammasome activation assay, IL-1 beta release, human monocyte-like cells, Nigericin stimulation. In kind it is cell-based. More on the design: endogenous in cells. To be noted: PMA-differentiated, LPS-primed human monocyte-like cells; Nigericin 3.75 μM 3 h; IL-1β by AlphaLISA. How it is done: as §1, §2, §3, §4, §5

With `O=C(Nc1c2c(cc3c1CCC3)CCC2)NS1(=O)=NC(=O)c2ccc(F)cc21` (stereo not shown) [Example 28], the IC50 on NLRP3 inflammasome [1] was < 1000 nM; at NLRP3 inflammasome [2], 1000 to 10000 nM.

For the compound `O=C(N=S1(=O)NC(=O)c2ccc(C(F)(F)F)cc21)Nc1c2c(cc3c1CCC3)CCC2` (stereo not shown) [Example 27], the IC50 against NLRP3 inflammasome [1] was < 1000 nM; against NLRP3 inflammasome [2], 1000 to 10000 nM.

Consider `O=C(Nc1c2c(cc3c1CCC3)CCC2)NS1(=O)=NC(=O)c2ncccc21` (stereo not shown) [Example 8], for which the IC50 at NLRP3 inflammasome [1] and at NLRP3 inflammasome [2] was 1000 to 10000 nM in each case.

For the compound `O=C(Nc1c(Br)ccc2c1CCO2)NS1(=O)=NC(=O)c2sccc21` (single isomer, unassigned) [Example 56], the results for the IC50 on NLRP3 inflammasome [1] and against NLRP3 inflammasome [2] were 1000 to 10000 nM and 10000 to 30000 nM, respectively.

For `COc1cc(-c2ccc3c(c2NC(=O)NS2(=O)=NC(=O)c4sccc42)CCC3)ccn1` (single isomer, unassigned) [Example 53], the IC50 against NLRP3 inflammasome [1] and against NLRP3 inflammasome [2] was < 1000 nM each time.

In the case of `COc1cc(-c2cc(F)cc(C(C)C)c2NC(=O)NS2(=O)=NC(=O)c3sccc32)ccn1` (single isomer, unassigned) [Example 50], the IC50 against NLRP3 inflammasome [1] and against NLRP3 inflammasome [2] was 1000 to 10000 nM each time.

Take `O=C(Nc1c2c(cc3c1CCC3)CCC2)NS1(=O)=NC(=O)c2cc(Br)ccc21` (single isomer, unassigned) [Example 58]: the IC50 on NLRP3 inflammasome [1] is < 1000 nM; at NLRP3 inflammasome [2] it was 1000 to 10000 nM.

On to `O=C(Nc1c2c(cc3c1CCC3)CCC2)NS1(=O)=NC(=O)c2ccncc21` (single isomer, unassigned) [Example 38], for which the IC50 is < 1000 nM against NLRP3 inflammasome [1] and 1000 to 10000 nM against NLRP3 inflammasome [2].

Take `O=C(Nc1c2c(cc3c1CCC3)CCC2)NS1(=O)=NC(=O)c2ncccc21` (single isomer, unassigned) [Example 39]: the IC50 at NLRP3 inflammasome [1] and against NLRP3 inflammasome [2] was 1000 to 10000 nM in each case.

Consider `O=C(Nc1c2c(cc3c1CCC3)CCC2)NS1(=O)=NC(=O)c2cc(Br)ccc21` (stereo not shown) [Example 23], for which the figures for the half-maximal inhibitory concentration (IC50) at NLRP3 inflammasome [1] and at NLRP3 inflammasome [2] were < 1000 nM and 1000 to 10000 nM, respectively.

Consider `O=C(Nc1c2c(cc3c1CCC3)CCC2)NS1(=O)=NC(=O)c2ccccc2C1` (single isomer, unassigned) [Example 33], for which the IC50 at NLRP3 inflammasome [1] was < 1000 nM; against NLRP3 inflammasome [2], 1000 to 10000 nM.

Take `O=C(Nc1c2c(cc3c1CCC3)CCC2)NS1(=O)=NC(=O)c2ccc(Cl)cc21` (single isomer, unassigned) [Example 45]: the IC50 on NLRP3 inflammasome [1] was < 1000 nM; on NLRP3 inflammasome [2], 1000 to 10000 nM.

For `COc1ccc2c(c1)C(=O)N=S2(=O)NC(=O)Nc1c2c(cc3c1CCC3)CCC2` (stereo not shown) [Example 22], the values for the IC50 on NLRP3 inflammasome [1] and against NLRP3 inflammasome [2] were < 1000 nM and 1000 to 10000 nM, respectively.

Turning to `O=C(Nc1c2c(cc3c1CCC3)CCC2)NS1(=O)=NC(=O)c2ccc(Cl)cc21` (stereo not shown) [Example 13], the IC50 against NLRP3 inflammasome [1] was < 1000 nM; on NLRP3 inflammasome [2] it was 1000 to 10000 nM.

Consider `CC(C)c1ccc2c(c1NC(=O)NS1(=O)=NC(=O)c3sccc31)CCO2` (single isomer, unassigned) [Example 49], for which the IC50 at NLRP3 inflammasome [1] was < 1000 nM; at NLRP3 inflammasome [2] it was 1000 to 10000 nM.

As to `O=C(Nc1c2c(cc3c1CCC3)CCC2)NS1(=O)=NC(=O)c2c(Cl)cccc21` (single isomer, unassigned) [Example 43], the IC50 is < 1000 nM against NLRP3 inflammasome [1] and 1000 to 10000 nM on NLRP3 inflammasome [2].

On to `Cc1cccc2c1C(=O)N=S2(=O)NC(=O)Nc1c2c(cc3c1CCC3)CCC2` (single isomer, unassigned) [Example 47], for which the IC50 against NLRP3 inflammasome [1] was < 1000 nM; on NLRP3 inflammasome [2] it was 1000 to 10000 nM.

Regarding `COc1cc(-c2cc(F)cc(C(C)C)c2NC(=O)NS2(=O)=NC(=O)c3sccc32)ccn1` (stereo not shown) [Example 17], the IC50 against NLRP3 inflammasome [1] and at NLRP3 inflammasome [2] was < 1000 nM throughout.

Take `COc1cc(-c2cc(F)cc(C(C)C)c2NC(=O)NS2(=O)=NC(=O)c3sccc32)ccn1` (single isomer, unassigned) [Example 51]: the IC50 at NLRP3 inflammasome [1] and against NLRP3 inflammasome [2] was < 1000 nM each time.

Regarding `Cc1cccc2c1C(=O)N=S2(=O)NC(=O)Nc1c2c(cc3c1CCC3)CCC2` (single isomer, unassigned) [Example 46], the half-inhibitory concentration (IC50) is < 1000 nM against NLRP3 inflammasome [1] and 1000 to 10000 nM against NLRP3 inflammasome [2].
